Laboratory results taken from patent US5744499A, “Apoptosis-modulating factors influencing the intracellular concentration of methional/malondialdehyde” (Centre International de Recherches Dermatologiques Galderma, priority 1994, dated 1998).

Legend:
HeLa cells [1] = assay: 2-oxobutyrate reversal of MTOB-induced growth inhibition of HeLa cells (methionine-free medium); format: cell-based
Experimental: HeLa cells (0.5×10^6 per Petri dish) were cultured in 3 ml of a minimum essential Eagle medium not containing methionine and containing 10% by weight dialyzed fetal calf serum. After four hours, 2-oxobutyrate (10 mM-40 mM) in the presence of 2 mM 4-methylthio-2-oxobutanoic acid (MTOB) were added. After three days at 37° C., the cells were washed twice in a buffered, phosphatized saline medium having a pH of 7.5 (PBS medium) and collected in the same type of buffer. Cell growth was measured in the same manner as in the preceding example.
Beginning at a level of 10 mM 2-oxobutyrate, inhibition decreased 2-3 times.

[2] = test system: reactive oxygenated substances (H2 O2 and HO^-); assay: Production of reactive oxygenated substances (H2O2 and HO-) in BAF3 cells, DCFH-DA flow cytometry; format: cell-based, mouse; conditions: for Fluorescence/10^6 cells: compound A 0 μM
BAF3 cells [3] = assay: Apoptosis of BAF3 cells, terminal deoxynucleotidyl transferase (TdT) test, flow cytometry; format: cell-based, mouse; conditions: 24 hours; compound A 50 μM, BCNU 40 μg/ml, or both; control 0.2
Experimental: Effect of BCNU and of an inhibitor of the transaminase implicated in the transformation of 4-methylthio-2-oxobutanoic acid into methionine on apoptosis:
The DNA strand cuttings were marked with biotinylated dUTP (detected by avidin fluorescein), in situ, in the cells rendered permeable and fixed using the terminal DNA transferase deoxynucleotidyl test (TdT), as described in Gorczyca et al, Cancer Res., 53, 1945-1951 (1993). 1.5×10^6 BAF3 cells (cell line described above) seeded in 3 ml of a culture medium containing IL3 (Dulbecco-modified Eagle medium containing 6% fetal calf serum and 5% of a medium treated with Wehl-3B cells used in the IL3 source). The cells were incubated in the presence of compound A in a concentration of 50 μM, 40 μg/ml of BCNU, and the mixture of these two compounds (50 μM of compound A+40 μg/ml of BCNU) or in the absence of these two compounds (control). After a 24-hour incubation period of time, the cells were washed in PBS buffer and fixed in formaldehyde, then in ethanol, and maintained a -20° C. for 3 days. Next, the cells were again placed in suspension in 50 μl of a solution containing […] sodium cacodylate, pH=7.5, 1 mM CoCl2, 0.1 mM dithiothreitol, 0.05 mg/ml Bovine Serum Albumin, 10 units TdT (from Boerhringer calf thymus), 0.5 nmol dCTP, and 0.5 nmol dGTP for one hour at 37° C. […]

[4] = test system: murine B16 Fl melanoma cells; assay: Survival of mice grafted with B16 melanoma cells; format: in vivo, mouse; conditions: BCNU 0.1 mg/kg, Compound A 25 mg/kg
Experimental: At t=0 day, 10^5 murine B16 Fl melanoma cells were injected into B6D2Fl mice (from the IFFA CREDO Company, France).
Table 5 reports the results corresponding to averages of the results obtained on three treated mice.
For the regimens containing multiple compounds, the quantities of each of the compounds used were identical to those of the regimens using the compounds by themselves.
Survival time was recorded beginning at t=0 day, as indicated above.
BCNU corresponds to N,N-Bis(2-chloroethyl)-N-nitrosourea. Compound A corresponds to the compound having formula (9), wherein X is a --OH radical.
Between the two regimens, the latter (to which methional was added) accounted for one-third of the mice surviving more than 60 days. The "average survival time" is the mean of the number of mice dying over the course of the experiment, i.e., within 60 days.
The procedure of the previous example was repeated, but the regimens and numbers of mice treated varied.
With respect to this latter regiment, the quantities corresponded to the quantities of compounds used alone. The percentage of long-term survivors corresponded to the percentage of mice which survived beyond 60 days.

HeLa cells [5] = assay: Effect of metabolites on the growth of HeLa cells; format: cell-based; conditions: Homo sapiens, 72 h, three days at 37° C., estimated by protein content, average of 3 or 4 experiments, read-out: IC50 (concentration required to inhibit cell growth by 50%)
Experimental: HeLa cells (0.5×10^6 per Petri dish) were cultured in 3 ml of a minimum essential Eagle medium containing 10% by weight dialyzed fetal calf serum. After four hours, methional (10 μM-1 mM), methionol (10 μM-20 mM), methylthiopropionic acid (MTPA) (1 μM-20 mM), L-methionine (1 μM-20 mM) or 4-methylthio-2-oxobutanoic acid (MTOB) (1 μM-20 mM) were added to each of the three dishes. After three days at 37° C., the cells were washed twice in a buffered, phosphatized saline medium having a pH of 7.5 (PBS medium) and collected in the same type of buffer.
Cell growth was assessed by measuring protein content (see technique described in O. H. Lowry, N. J. Rosebrouh, A. L. Farr, and R. J. Randall, J. Biol. Chem., 193, 265-275 (1951)) or the DNA content in the lysate using a bisbenzimide trihydrochloride solution (Hoechst 33258) (see W. D. Jarvis, R. N. Kolesnick, F. A. Fornari, R. S. Traylor, D. A. Gewirtz, and S. Grant, Proc. Natl. Acad. Sci. USA, 91, 73-77 (1994)), or by determining […] using 3-(4,5-dimethylthiazol-2-yl)-2,5-diphenyl-tetrazolium bromide (MTT) (see T. Mosmann, J. of Immunology, Methods, 65, 55-63 (1983)).
Each value of is the average of 3 or 4 experiments as estimated by protein content.
IC50 represents the concentration of compound required to inhibit cell growth by 50%.

BAF3-bO cells = test system: BAF3-bO cells
Experimental: (§1) The cells used were identical to those in the preceding example.
(§2) [^14 C]MTOB was prepared by oxidative deamination of [^14 C]Methionine, as described in Ogier et al, Biochem. Pharmacol., 45, 1631-1644 (1993). [^14 C]MTOB (5×10^6 dpm corresponding to 38.2 nmol) was added to a cellular BAF3-bO or BAF3-bcl2 suspension (2.4×10^5 cells/ml) in DMEM containing 6% fetal calf serum and 5% IL3. 39 hours later, the cells were washed twice in PBS and placed in suspension at a concentration of 9×10^5 cells/ml. [U ^14 C]MTOB (1.9×10^6 dpm corresponding to 14.5 nmol) was added to 10^8 cells, and, eight hours later, the cells were collected by centrifugation at 400 g for five minutes. The cellular sediments were solubilized using 1.5 ml of 0.5N NaOh for 30 minutes at 60° C. The total radioactivity in the cells was measured on 10 μl aliquots. Next, perchloric acid in a final concentration of 0.5N, then 200 μmol of 2,4-DNPH (2,4-dinitrophenylhyrazine, marketed by Merck) were added to the alkaline hydrolyzate obtained. The mixture was heated to 70° C. for 30 minutes, then centrifuged at 400 g for five minutes. The precipitate was solubilized ion 1 ml of 0.5N NaOH, and the radioactivity and protein content were determined. NaOH, pH=10, was added to the supernatant. The marked metabolites were extracted in ethylene acetate, and the organic phase was dried, acidified, and extracted in dichloromethane. The marked metabolites in the organic phase were separated out and identified using high-performance thin-layer chromatography and compared to the 2,4-DNPH derivatives of the reference compounds, then quantified by radiochromatography.

BAF3-bcl2 cells = test system: BAF3-bcl2 cells
Experimental: as §1, §2

BAF3 cells [6] = assay: DNA fragmentation in BAF3 cells, agarose gel electrophoresis; format: cell-based, mouse; conditions: 200-800 μM, medium with IL3, 8 hours
Experimental: K. L. Collins, J. Marvel, […] A. Lopez-[…]. Exp. Med., 176, 1043-1051 (1992)]. […] After 8 hours of contact, the cells were washed three times in a phosphatized buffered saline medium, pH=7.5 (PBS medium). […] The supernatants were decanted and analyzed as indicated below. For purposes of comparison, the same cultures were grown in a medium, either with IL3 (+IL3) or without IL3 (-IL3). The DNA fragments obtained were analyzed qualitatively using the method described, in particular, in W. D. Jarvis, […], and S. Grant, Proc. Natl. Acad. Sci. USA, 91, 73-77 (1994). The supernatants were treated with ribonuclease A (20 μg/ml) for 1 hour at 37° C., and with the proteinase R (100 μg/ml). The DNA was purified using phenol extraction and precipitated with ethanol. […] After electrophoresis (60V, 3 hours), the gels were stained with ethydium bromide.

[7] = Table 5, three mice, daily injection for 15 days, Methional 25 mg/kg, control 20.5

`CCC(=O)C(=O)O` [2-oxobutyrate] was tested, and the “decrease of growth inhibition” value (HeLa cells [1]; beginning at 10 mM 2-oxobutyrate, with 2 mM MTOB) was 2-3 times.
For `O=NN(CCCl)C(=O)NCCCl` [BCNU, N,N-Bis(2-chloroethyl)-N-nitrosourea], the “Fluorescence/10^6 cells” value ([2]; BCNU 10 μg/ml) was 4%, the “Fluorescence/10^6 cells” value ([2]; BCNU 20 μg/ml) was 4% and the “Fluorescence/10^6 cells” value ([2]; BCNU 40 μg/ml) was 10%. The “% apoptotic cells” value (BAF3 cells [3]) was 2.3%, the “Average Survival Time” value [4, 7] was 24.5 days and the “% long-term survivors (mice surviving beyond 60 days)” value ([4]; Table 6, 6 or 10 mice, Methional 50 mg/kg, control 0) was 0%. For the same compound, the Average Survival Time ([4]; Table 6, 6 or 10 mice, Methional 50 mg/kg, control 23.7) was 32.5 days.
For `CSCCC(NCc1c(CO)cnc(C)c1O)C(=O)OC(C)(C)C` (stereo not drawn) [Compound A], the “effect on increase of HO^- resulting from increased BCNU concentration” value ([2]; compound A 50 μM with BCNU) was “suppressed the increase of HO^-”, the “% apoptotic cells” value (BAF3 cells [3]) was 0.3% and the “Average Survival Time” value [4, 7] was 21.9 days.
`CSCC[C@H](N)C(=O)O` [L methionine, L-methionine] was tested, and the IC50 (HeLa cells [5]) was > 20 mM.
Work on `CSCCC(=O)C(=O)O` [MTOB, 4-methylthio-2-oxobutanoic acid] yielded an inhibition at 2000 µM (HeLa cells [1]; Homo sapiens, HeLa, 72 h, 2 mM MTOB alone, three days at 37° C.) of 72% and an IC50 (HeLa cells [5]) of 1.6 mM.
`CSCCC(=O)O` [MTPA, methylthiopropionic acid] showed an IC50 (HeLa cells [5]) of 10 mM.
For `CSCCC(=O)C(=O)O` [[^14 C]MTOB], the “2,4-DNPH malondialdehyde (2,4-DNPH pyrazole)” value (BAF3-bO cells; BAF3-bO) was 800 dpm/mg of DNA, the “2,4-DNPH methional” value (BAF3-bO cells; BAF3-bO) was 14,050 dpm/mg of DNA and the Free methional (BAF3-bO cells; BAF3-bO) was 36,820 dpm/mg of DNA. The “Spec. activity of cellular proteins” value (BAF3-bO cells; BAF3-bO) was 23,500 dpm/mg protein, the “radioactivity in methional higher in BAF3-bO than in BAF3-bcl2 cells” value (BAF3-bO cells; BAF3-bO compared with BAF3-bcl2) was 80% and the “Total radioactivity/mg of DNA” value (BAF3-bO cells; BAF3-bO, incubation 47 hours) was 1,252,000 /mg of DNA. For the same compound, the “2,4-DNPH malondialdehyde (2,4-DNPH pyrazole)” value (BAF3-bcl2 cells; BAF3-bcl2) was 0 dpm/mg of DNA, the “2,4-DNPH methional” value (BAF3-bcl2 cells; BAF3-bcl2) was 7,650 dpm/mg of DNA and the Free methional (BAF3-bcl2 cells; BAF3-bcl2) was 51,440 dpm/mg of DNA. The “Spec. activity of cellular proteins” value (BAF3-bcl2 cells; BAF3-bcl2) was 20,850 dpm/mg protein, the “Total radioactivity/mg of DNA” value (BAF3-bcl2 cells; BAF3-bcl2, incubation 47 hours) was 1,111,000 /mg of DNA and the “marked malondialdehyde formation, result in words” value (BAF3-bcl2 cells; BAF3-bcl2 cell extracts) was “no radioactivity with respect to the malondialdehyde was detected”. The “increase in radioactivity of free methionine (printed metmonine) in BAF3-bcl2 versus BAF3-bO cells” value (BAF3-bcl2 cells; BAF3-bcl2 compared with BAF3-bO) was 40%.
With `CSCCCO` [methionol] the IC50 (HeLa cells [5]) was > 20 mM.
In the case of `CCCO` [propanol], the “triggering of apoptosis (ladder of DNA fragments of 180 to 200 base pairs on gel)” value (BAF3 cells [6]) is reported as “the gel did not possess this characteristic”.
